Assay results reported in ChEMBL document CHEMBL4028801, “A multifactorial approach to hepatobiliary transporter assessment enables improved therapeutic compound development” (Toxicol Sci, 2013).
pIC50: −log10 of the molar value. Structures can show the parent of a compound that is named as a salt.

Columns and labels:
Bile salt export pump = Bile salt export pump (Homo sapiens, UniProt O95342); test: Inhibition of human BSEP overexpressed in Sf9 cell membrane vesicles assessed as uptake of [3H]-taurocholate in presence of ATP measured after 15 to 20 mins by membrane vesicle transport assay; assay type: ADME, cell-based
[1] = target: ATP-binding cassette sub-family C member 2 (Homo sapiens, UniProt Q92887); test: Inhibition of human MRP2 overexpressed in Sf9 cell membrane vesicles assessed as uptake of [3H]-estradiol-17beta-D-glucuronide in presence of ATP and GSH measured after 20 mins by membrane vesicle transport assay
[2] = target: ATP-binding cassette sub-family C member 3 (Homo sapiens, UniProt O15438); test: Inhibition of human MRP3 overexpressed in Sf9 insect cell membrane vesicles assessed as uptake of [3H]-estradiol-17beta-D-glucuronide in presence of ATP and GSH measured after 10 mins by membrane vesicle transport assay; assay type: ADME, cell-based
[3] = target: T1, ATP-binding cassette sub-family C member 4 (Homo sapiens, UniProt O15439); test: Inhibition of human MRP4 overexpressed in Sf9 cell membrane vesicles assessed as uptake of [3H]-estradiol-17beta-D-glucuronide in presence of ATP and GSH measured after 20 mins by membrane vesicle transport assay; assay type: ADME, cell-based
T1 sequence (O15439 whole entry): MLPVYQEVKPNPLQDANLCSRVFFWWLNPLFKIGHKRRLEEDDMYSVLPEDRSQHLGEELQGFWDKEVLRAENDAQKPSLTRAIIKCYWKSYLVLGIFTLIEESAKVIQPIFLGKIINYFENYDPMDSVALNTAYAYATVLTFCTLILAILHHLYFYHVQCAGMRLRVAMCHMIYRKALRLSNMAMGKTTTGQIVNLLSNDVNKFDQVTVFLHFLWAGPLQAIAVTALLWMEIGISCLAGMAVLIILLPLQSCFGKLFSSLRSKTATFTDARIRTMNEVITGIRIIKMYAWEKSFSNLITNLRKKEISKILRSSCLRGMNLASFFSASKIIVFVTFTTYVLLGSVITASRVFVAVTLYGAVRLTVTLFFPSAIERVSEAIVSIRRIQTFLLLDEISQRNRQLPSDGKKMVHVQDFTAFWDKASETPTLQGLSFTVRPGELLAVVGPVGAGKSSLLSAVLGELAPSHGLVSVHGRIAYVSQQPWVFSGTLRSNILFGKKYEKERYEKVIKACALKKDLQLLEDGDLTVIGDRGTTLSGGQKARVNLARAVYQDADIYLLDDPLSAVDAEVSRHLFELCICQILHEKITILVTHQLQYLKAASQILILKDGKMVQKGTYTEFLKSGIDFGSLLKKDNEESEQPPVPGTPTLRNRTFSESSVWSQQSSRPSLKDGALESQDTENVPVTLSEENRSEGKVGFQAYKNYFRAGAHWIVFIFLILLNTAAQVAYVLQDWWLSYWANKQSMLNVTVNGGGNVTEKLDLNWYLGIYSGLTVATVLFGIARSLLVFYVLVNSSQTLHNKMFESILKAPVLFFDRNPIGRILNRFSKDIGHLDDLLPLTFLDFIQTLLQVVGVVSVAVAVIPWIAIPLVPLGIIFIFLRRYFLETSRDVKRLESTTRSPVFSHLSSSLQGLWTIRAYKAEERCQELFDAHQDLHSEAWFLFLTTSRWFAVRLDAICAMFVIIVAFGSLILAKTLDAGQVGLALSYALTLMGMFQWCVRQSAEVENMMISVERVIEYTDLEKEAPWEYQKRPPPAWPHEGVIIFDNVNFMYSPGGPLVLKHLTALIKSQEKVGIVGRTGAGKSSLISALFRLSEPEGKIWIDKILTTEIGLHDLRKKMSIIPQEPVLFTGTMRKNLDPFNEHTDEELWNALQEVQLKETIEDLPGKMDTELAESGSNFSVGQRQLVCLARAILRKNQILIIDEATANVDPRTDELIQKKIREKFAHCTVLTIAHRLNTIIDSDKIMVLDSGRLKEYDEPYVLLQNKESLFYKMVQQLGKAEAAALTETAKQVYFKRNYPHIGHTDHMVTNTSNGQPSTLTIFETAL

ATP-binding cassette sub-family C member 2, sequence (Q92887 whole entry): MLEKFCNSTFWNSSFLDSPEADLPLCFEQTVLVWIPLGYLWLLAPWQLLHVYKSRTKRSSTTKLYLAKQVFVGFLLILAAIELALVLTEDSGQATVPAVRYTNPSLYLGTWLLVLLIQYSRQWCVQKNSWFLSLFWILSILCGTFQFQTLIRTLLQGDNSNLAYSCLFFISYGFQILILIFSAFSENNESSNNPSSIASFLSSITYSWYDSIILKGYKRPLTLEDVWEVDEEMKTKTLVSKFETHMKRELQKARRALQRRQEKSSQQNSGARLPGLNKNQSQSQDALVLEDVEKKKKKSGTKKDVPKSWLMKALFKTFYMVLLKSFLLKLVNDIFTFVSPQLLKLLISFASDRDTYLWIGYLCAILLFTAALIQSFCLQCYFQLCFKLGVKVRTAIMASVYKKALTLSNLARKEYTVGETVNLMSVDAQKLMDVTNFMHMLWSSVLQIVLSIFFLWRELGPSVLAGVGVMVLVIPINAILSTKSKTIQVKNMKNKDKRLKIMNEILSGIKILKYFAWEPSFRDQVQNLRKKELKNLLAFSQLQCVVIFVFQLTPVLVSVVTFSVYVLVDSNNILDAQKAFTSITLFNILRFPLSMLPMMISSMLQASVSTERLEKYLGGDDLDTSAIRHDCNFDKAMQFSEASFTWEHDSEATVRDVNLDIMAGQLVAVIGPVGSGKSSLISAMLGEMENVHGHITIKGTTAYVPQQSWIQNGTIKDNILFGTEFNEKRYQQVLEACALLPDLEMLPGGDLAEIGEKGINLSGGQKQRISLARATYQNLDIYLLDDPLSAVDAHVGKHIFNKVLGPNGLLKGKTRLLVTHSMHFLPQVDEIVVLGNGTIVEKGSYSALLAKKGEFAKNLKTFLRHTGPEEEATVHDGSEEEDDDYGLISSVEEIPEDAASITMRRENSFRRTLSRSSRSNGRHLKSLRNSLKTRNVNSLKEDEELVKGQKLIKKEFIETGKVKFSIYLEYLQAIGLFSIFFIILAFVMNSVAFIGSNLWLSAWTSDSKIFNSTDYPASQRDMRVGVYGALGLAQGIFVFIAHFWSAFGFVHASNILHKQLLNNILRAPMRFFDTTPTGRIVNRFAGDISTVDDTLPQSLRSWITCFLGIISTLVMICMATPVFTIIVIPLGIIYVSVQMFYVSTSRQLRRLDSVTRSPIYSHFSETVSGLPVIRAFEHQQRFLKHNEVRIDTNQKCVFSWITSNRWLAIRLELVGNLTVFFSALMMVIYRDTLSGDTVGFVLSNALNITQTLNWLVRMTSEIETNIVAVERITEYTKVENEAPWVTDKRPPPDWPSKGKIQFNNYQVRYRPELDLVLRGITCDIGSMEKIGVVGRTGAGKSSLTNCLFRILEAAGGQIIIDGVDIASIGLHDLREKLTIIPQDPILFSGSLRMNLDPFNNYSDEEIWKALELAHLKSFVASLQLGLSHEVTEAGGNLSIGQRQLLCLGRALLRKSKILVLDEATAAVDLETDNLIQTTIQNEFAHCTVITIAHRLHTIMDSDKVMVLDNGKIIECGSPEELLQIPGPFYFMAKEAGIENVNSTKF
Bile salt export pump, sequence (O95342 whole entry): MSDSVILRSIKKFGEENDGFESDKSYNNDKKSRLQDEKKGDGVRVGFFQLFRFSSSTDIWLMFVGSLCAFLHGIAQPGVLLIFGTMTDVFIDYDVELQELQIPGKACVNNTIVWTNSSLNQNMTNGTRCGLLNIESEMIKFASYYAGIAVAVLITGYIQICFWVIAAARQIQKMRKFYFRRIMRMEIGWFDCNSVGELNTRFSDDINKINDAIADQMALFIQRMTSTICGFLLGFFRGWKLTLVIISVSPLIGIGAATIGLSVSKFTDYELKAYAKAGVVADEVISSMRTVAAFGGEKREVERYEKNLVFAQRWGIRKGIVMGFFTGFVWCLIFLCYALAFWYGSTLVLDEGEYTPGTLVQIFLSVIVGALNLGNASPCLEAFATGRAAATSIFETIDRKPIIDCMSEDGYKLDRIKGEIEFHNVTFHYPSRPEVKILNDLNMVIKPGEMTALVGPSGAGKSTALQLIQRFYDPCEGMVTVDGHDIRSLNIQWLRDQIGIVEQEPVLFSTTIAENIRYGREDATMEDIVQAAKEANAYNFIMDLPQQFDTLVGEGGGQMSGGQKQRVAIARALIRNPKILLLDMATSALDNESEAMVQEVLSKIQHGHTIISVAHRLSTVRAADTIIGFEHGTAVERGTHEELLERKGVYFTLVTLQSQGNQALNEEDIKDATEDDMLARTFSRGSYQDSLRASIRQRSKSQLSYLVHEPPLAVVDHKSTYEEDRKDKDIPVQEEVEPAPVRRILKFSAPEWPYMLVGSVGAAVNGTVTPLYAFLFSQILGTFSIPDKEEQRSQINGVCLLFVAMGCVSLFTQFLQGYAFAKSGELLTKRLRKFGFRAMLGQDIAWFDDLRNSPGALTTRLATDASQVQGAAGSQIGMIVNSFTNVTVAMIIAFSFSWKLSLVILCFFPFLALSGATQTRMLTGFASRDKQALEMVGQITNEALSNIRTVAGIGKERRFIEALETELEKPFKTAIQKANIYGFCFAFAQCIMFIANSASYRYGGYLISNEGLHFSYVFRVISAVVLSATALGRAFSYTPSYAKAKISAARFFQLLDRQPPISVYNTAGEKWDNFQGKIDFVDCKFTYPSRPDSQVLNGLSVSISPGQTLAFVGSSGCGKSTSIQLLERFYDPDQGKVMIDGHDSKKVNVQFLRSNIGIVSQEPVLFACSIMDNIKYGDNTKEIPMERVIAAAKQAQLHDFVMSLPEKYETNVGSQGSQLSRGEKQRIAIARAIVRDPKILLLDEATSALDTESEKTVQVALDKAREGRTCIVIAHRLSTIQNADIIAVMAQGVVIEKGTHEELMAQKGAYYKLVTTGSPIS
ATP-binding cassette sub-family C member 3, sequence (O15438 whole entry): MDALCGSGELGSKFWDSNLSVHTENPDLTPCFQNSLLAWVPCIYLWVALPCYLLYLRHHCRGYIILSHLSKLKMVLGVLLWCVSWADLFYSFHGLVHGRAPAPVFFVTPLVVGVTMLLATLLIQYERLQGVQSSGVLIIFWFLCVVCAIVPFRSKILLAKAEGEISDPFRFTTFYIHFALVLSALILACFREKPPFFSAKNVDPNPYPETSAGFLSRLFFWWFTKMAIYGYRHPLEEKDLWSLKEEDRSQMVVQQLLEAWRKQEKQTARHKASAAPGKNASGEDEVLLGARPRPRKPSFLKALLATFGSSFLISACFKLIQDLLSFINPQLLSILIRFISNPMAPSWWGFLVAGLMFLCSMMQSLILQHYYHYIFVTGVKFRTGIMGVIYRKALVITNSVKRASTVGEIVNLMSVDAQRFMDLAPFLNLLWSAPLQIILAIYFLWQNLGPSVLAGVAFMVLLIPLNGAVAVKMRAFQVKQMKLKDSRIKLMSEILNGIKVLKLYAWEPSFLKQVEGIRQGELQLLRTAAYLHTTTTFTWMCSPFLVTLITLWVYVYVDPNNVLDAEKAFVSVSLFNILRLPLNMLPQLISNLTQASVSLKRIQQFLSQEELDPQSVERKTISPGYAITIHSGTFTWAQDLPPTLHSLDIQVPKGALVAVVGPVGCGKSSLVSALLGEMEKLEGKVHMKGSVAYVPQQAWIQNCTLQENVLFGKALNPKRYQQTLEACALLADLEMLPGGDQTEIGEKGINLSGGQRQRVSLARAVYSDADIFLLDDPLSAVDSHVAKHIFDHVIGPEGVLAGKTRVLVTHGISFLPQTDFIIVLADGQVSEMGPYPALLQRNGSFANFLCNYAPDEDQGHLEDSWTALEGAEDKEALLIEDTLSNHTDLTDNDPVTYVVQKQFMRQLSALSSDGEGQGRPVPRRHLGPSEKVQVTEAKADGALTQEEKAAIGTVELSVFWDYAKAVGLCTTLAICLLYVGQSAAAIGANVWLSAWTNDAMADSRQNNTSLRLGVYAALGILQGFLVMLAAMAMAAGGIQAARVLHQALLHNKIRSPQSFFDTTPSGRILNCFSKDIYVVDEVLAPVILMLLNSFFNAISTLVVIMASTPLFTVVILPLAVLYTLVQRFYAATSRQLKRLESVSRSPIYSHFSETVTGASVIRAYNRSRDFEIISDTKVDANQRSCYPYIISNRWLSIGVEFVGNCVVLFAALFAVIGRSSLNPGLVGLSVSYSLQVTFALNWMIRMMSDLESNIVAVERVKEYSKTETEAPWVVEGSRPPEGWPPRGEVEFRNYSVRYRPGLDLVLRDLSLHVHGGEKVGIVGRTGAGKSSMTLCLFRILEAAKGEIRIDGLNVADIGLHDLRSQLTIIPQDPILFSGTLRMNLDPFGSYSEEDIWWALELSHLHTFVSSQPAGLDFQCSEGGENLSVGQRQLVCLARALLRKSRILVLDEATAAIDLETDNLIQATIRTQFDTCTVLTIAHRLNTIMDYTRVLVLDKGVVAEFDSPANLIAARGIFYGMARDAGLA

SMILES	pIC50 (Bile salt export pump)	pIC50 [1]	pIC50 [2]	pIC50 [3]
CC(C)Cn1cnc2c(N)nc3ccccc3c21 [IMIQUIMOD]	< 3.88	< 3.88	< 3.88	< 3.88
C[C@@H](O[C@H]1OCCN(Cc2n[nH]c(=O)[nH]2)[C@H]1c1ccc(F)cc1)c1cc(C(F)(F)F)cc(C(F)(F)F)c1 [APREPITANT]	< 3.88	< 3.88	< 3.88	< 3.88
O=P1(NCCCl)OCCCN1CCCl (centres undefined) [IFOSFAMIDE]	< 3.88	< 3.88	< 3.88	< 3.88
CC(O)(P(=O)(O)O)P(=O)(O)O [ETIDRONATE DISODIUM]	< 3.88	< 3.88	< 3.88	< 3.88
COc1ccc(Cc2nccc3cc(OC)c(OC)cc23)cc1OC [PAPAVERINE]	< 3.88	< 3.88	< 3.88	4.64
CCOC(=O)/C=C(C)/C=C/C=C(C)/C=C/c1c(C)cc(OC)c(C)c1C [ETRETINATE]	< 3.88	< 3.88	< 3.88	< 3.88
CC1(C)[C@H](C(=O)O)N2C(=O)C[C@H]2S1(=O)=O [SULBACTAM]	< 3.88	< 3.88	< 3.88	< 3.88
Cn1c(=O)c2[nH]cnc2n(C)c1=O [THEOPHYLLINE]	< 3.88	< 3.88	< 3.88	< 3.88
CCN(CC)CCNC(=O)c1cc(Cl)c(N)cc1OC [METOCLOPRAMIDE]	< 3.88	< 3.88	< 3.88	< 3.88
CCC1(C)CC(=O)NC1=O (centres undefined) [ETHOSUXIMIDE]	< 3.88	< 3.88	< 3.88	< 3.88
C#CCN(C)[C@H](C)Cc1ccccc1 [SELEGILINE HYDROCHLORIDE]	< 3.88	< 3.88	< 3.88	< 3.88
CCOC(=O)C1=C[C@@H](OC(CC)CC)[C@H](NC(C)=O)[C@@H](N)C1 [OSELTAMIVIR PHOSPHATE]	< 3.88	< 3.88	< 3.88	< 3.88
CN(C)CCCC1(c2ccc(F)cc2)OCc2cc(C#N)ccc21 (centres undefined) [CITALOPRAM]	< 3.88	< 3.88	< 3.88	< 3.88
CC(C)NCC(O)COc1ccc(CC(N)=O)cc1 (centres undefined) [ATENOLOL]	< 3.88	< 3.88	< 3.88	< 3.88
CC(C)(C)NCC(O)c1cc(O)cc(O)c1 (centres undefined) [TERBUTALINE]	< 3.88	< 3.88	< 3.88	< 3.88
CN1CCN(C(=O)O[C@H]2c3nccnc3C(=O)N2c2ccc(Cl)cn2)CC1 [ESZOPICLONE]	< 3.88	< 3.88	< 3.88	< 3.88
CC(=O)NC[C@H]1CN(c2ccc(N3CCOCC3)c(F)c2)C(=O)O1 [LINEZOLID]	< 3.88	< 3.88	< 3.88	< 3.88
Oc1c(I)cc(Cl)c2cccnc12 [CLIOQUINOL]	< 3.88	< 3.88	< 3.88	< 3.88
C=C[C@H]1C[N@@]2CC[C@H]1C[C@@H]2[C@@H](O)c1ccnc2ccc(OC)cc12 [QUINIDINE]	< 3.88	< 3.88	< 3.88	4.34
CC(C(=O)O)c1ccc2c(c1)Cc1cccnc1O2 (centres undefined) [PRANOPROFEN]	< 3.88	< 3.88	< 3.88	5.01
CC(=O)NS(=O)(=O)c1ccc(N)cc1	< 3.88	< 3.88	< 3.88	< 3.88
